{
  "source": "patent EP0045990A1",
  "about": "“Novel antibacterial and antiprotozoal derivatives, a process for the preparation thereof, and related pharmaceutical compositions” (Farmatis S.r.l., priority 1980, dated 1982)",
  "key": {"[1]": {"experiment": "half-life in animal (dog) and in man", "settings": "in vivo"}, "[2]": {"test_system": "hepatic glutatione-S-transferase", "experiment": "activity of hepatic glutathione-S-transferase"}, "[3]": {"experiment": "solubility in solvents and water", "assay_type": "physicochemical", "description": "According to the present invention there is provided a compound of formula (I) in which R1 is -OCH3 and R is CH3, which is a crystalline yellow compound, which decomposes upon heating to 170°C, is soluble (1 : 100) in methanol and (1 : 30) in dimethylformamide, but insoluble in water."}, "Trichomonas Vaginalis": {"test_system": "Trichomonas Vaginalis", "assay_type": "in vivo, humans", "description": "The clinical investigation involved 42 patients, aged from 22 to 55, affected by vaginitis induced by Trichomonas Vaginalis.\nThe diagnosis was determined through bacterioscopic, cultural and May-Grunwald Giemsa examinations, which were repeated 3 days after the end of the treatment. The 42 Patients were splitted into 6 groups of 7 patients each."}, "[4]": {"settings": "treated orally (1st, 2nd, 3rd, 4th groups)"}},
  "data": [
    {"compound": "Cc1ncc([N+](=O)[O-])n1CCO", "note": "[metronidazole, 1-(2-hydroxyethyl)-2-methyl-5-nitro-imidazole]", "values": [
      {"measurement": "half-life", "setting": "[1]", "result": 7.3, "unit": "h"},
      {"measurement": "activity of the hepatic glutatione-S-transferase", "setting": "[2]", "result": "does not exert this action"}
    ]},
    {"compound": "COc1ccc(OC(=O)CCC(=O)Nc2nccc(C=Cc3ncc([N+](=O)[O-])n3C)n2)c(C(C)(C)C)c1", "note": "[p-methoxy-o-tert-butyl-phenol ester of 5-nitro-imidazolyl-2-ethenyl-(2-amino-pyrimidyl)-N-succinic acid]", "values": [
      {"measurement": "solubility in water", "setting": "[3]", "result": "insoluble"},
      {"measurement": "complete recovery", "setting": "Trichomonas Vaginalis; 5th group, treated only locally", "result": 85, "unit": "%"},
      {"measurement": "Trichomonas vaqinalis disappeared, number of patients", "setting": "Trichomonas Vaginalis; 5th group, treated only locally, 3 vaginal tablets of 200 mg per day for 5 days", "result": "6 out of 7 patients"},
      {"measurement": "positive results", "setting": "Trichomonas Vaginalis; 6th group, treated both orally and locally", "result": 100, "unit": "%"},
      {"measurement": "activity against Trichomoniasis", "setting": "Trichomonas Vaginalis; 42 patients", "result": "highly active"},
      {"measurement": "tolerance in patients", "setting": "Trichomonas Vaginalis; human, in vivo, po", "result": "well tolerated"},
      {"measurement": "complete success", "setting": "Trichomonas Vaginalis; [4]", "result": 98, "unit": "%"},
      {"measurement": "complete success, number of patients", "setting": "Trichomonas Vaginalis; [4]", "result": "25 patiens out of 28"}
    ]}
  ]
}
